ChEMBL document CHEMBL1155647, “New eudesmane sesquiterpenes from Plectranthus cylindraceus” (J Nat Prod, 2000)
The source made the active and inactive calls.

Experiments:
[1] = test system: SF-268; assay: Anticancer activity against human SF268 cells; format: functional, cell-based
[2] = test system: Staphylococcus aureus; assay: Antimicrobial activity against Staphylococcus aureus ATCC 29213 at 100 ug/mL by agar dilution assay; format: functional, organism-based
[3] = test system: MCF7; assay: Anticancer activity against human MCF7 cells; format: functional, cell-based
[4] = test system: Pseudomonas aeruginosa; assay: Antimicrobial activity against Pseudomonas aeruginosa ATCC 15442 at 100 ug/mL by agar dilution assay; format: functional, organism-based
[5] = test system: Candida albicans; assay: Antimicrobial activity against Candida albicans ATCC 10231 at 100 ug/mL by agar dilution assay; format: functional, organism-based
[6] = test system: NCI-H460; assay: Anticancer activity against human NCI-H460 cells; format: functional, cell-based
[7] = test system: Bacillus subtilis; assay: Antimicrobial activity against Bacillus subtilis ATCC 6633 at 100 ug/mL by agar dilution assay; format: functional, organism-based
[8] = test system: Escherichia coli; assay: Antimicrobial activity against Escherichia coli ATCC 25922 at 100 ug/mL by agar dilution assay; format: functional, organism-based
[9] = test system: Mycolicibacterium smegmatis; assay: Antimicrobial activity against Mycobacterium smegmatis ATCC 35797 at 100 ug/mL by agar dilution assay; format: functional, organism-based

Measured: Activity

CC(=O)O[C@@H]1[C@H](C(C)C)CC[C@@]2(CO)CC(=O)C=C(C)[C@@H]12
inactive: all assays above

CC(=O)OC[C@@]12CC[C@@H](C(C)C)[C@@H](OC(C)=O)[C@@H]1C(C)=CC(=O)C2
inactive: all assays above

CC(=O)OC[C@@]12CC[C@@H](C(C)C)[C@@H](O)[C@@H]1C(C)=CC(=O)C2
not listed: [1] | [3] | [6]
inactive: all other assays above

COc1cc2oc(-c3ccc(O)c(O)c3)c(OC)c(=O)c2c(O)c1OC
not listed: [1] | [3] | [6]
inactive: all other assays above

COc1ccc(-c2oc3cc(OC)c(OC)c(O)c3c(=O)c2OC)cc1O
not listed: [1] | [3] | [6]
inactive: all other assays above

COc1cc(O)c2c(=O)c(OC)c(-c3ccc(O)c(OC)c3)oc2c1
not listed: [1] | [3] | [6]
inactive: all other assays above
